Laboratory results: the NIST ThermoML archive (doi:10.1016/j.fluid.2007.01.033)
Numbers after ± are expanded uncertainties.

Assays:
[1] = refractive index (Na D-line) (dimensionless); details: 298.15 K; 101.33 kPa; Liquid; Standard Abbe refractometry
[2] = xn = mol fraction of the nth substance listed; details: 313.15 K, Liquid

O=C=O [carbon dioxide]
313.15 K, Fluid (supercritical or subcritical phases)
Details | mass density [kg/m3]
1000 kPa | 17.9 ± 0.2
2000 kPa | 37.1 ± 0.3
3000 kPa | 58.7 ± 0.3
4000 kPa | 83.5 ± 0.4
5000 kPa | 112.7 ± 0.5
6000 kPa | 148.8 ± 0.7
7000 kPa | 197.3 ± 0.9
8000 kPa | 276.7 ± 1.6
9000 kPa | 483.4 ± 2.6
10000 kPa | 627.4 ± 2.3

COC(C)=O [methyl ethanoate]
Details | Normal boiling temperature [°C] | refractive index
Liquid | 56.89 ± 0.17 | –
[1] | – | 1.3594 ± 0.0007

Details | mass density [kg/m3]
298.15 K, 101.33 kPa, Liquid | 927.1 ± 0.3

COC(C)=O [methyl ethanoate] + O=C=O
mass density [kg/m3], [2]
Details | 1000 kPa | 2000 kPa | 3000 kPa | 4000 kPa | 5000 kPa | 6000 kPa | 7000 kPa | 8000 kPa | 9000 kPa | 10000 kPa
x2 = 0 | 907.9 ± 0.4 | 908.9 ± 0.4 | 909.7 ± 0.4 | 910.9 ± 0.4 | 912 ± 0.4 | 913.1 ± 0.4 | 914.1 ± 0.5 | 915.1 ± 0.5 | 916.1 ± 0.5 | 917.1 ± 0.5
x2 = 0.1 | 910 ± 0.4 | 911.1 ± 0.4 | 912.4 ± 0.4 | 913.5 ± 0.4 | 914.7 ± 0.4 | 915.9 ± 0.4 | 917 ± 0.4 | 918.1 ± 0.5 | 919.2 ± 0.5 | 920.3 ± 0.5
x2 = 0.2 | – | 913.9 ± 0.4 | 915.2 ± 0.4 | 916.6 ± 0.4 | 917.9 ± 0.4 | 919.1 ± 0.4 | 920.4 ± 0.4 | 921.7 ± 0.4 | 922.9 ± 0.5 | 924.1 ± 0.5
x2 = 0.3 | – | – | – | 917.1 ± 0.4 | 918.6 ± 0.4 | 920.1 ± 0.4 | 921.5 ± 0.4 | 922.9 ± 0.4 | 924.3 ± 0.5 | 925.7 ± 0.5
x2 = 0.4 | – | – | – | 917.4 ± 0.4 | 919.2 ± 0.4 | 920.9 ± 0.4 | 922.7 ± 0.4 | 924.3 ± 0.4 | 925.9 ± 0.4 | 927.5 ± 0.5
x2 = 0.5 | – | – | – | – | 915.4 ± 0.4 | 917.5 ± 0.4 | 919.6 ± 0.4 | 921.6 ± 0.4 | 923.7 ± 0.5 | 925.6 ± 0.5
x2 = 0.6 | – | – | – | – | – | 909 ± 0.5 | 912.8 ± 0.5 | 915.5 ± 0.5 | 918.1 ± 0.5 | 920.7 ± 0.5
x2 = 0.7 | – | – | – | – | – | 891.8 ± 0.5 | 895.9 ± 0.5 | 899.7 ± 0.5 | 903.5 ± 0.5 | 907 ± 0.5
x2 = 0.8 | – | – | – | – | – | – | 861.5 ± 0.6 | 868.2 ± 0.6 | 873.8 ± 0.7 | 879.5 ± 0.7
x2 = 0.9 | – | – | – | – | – | – | – | 793.5 ± 0.9 | 808 ± 0.9 | 820.3 ± 0.9
x2 = 0.95 | – | – | – | – | – | – | – | – | 734.6 ± 1.2 | 759.7 ± 1.2
